Laboratory results published in patent US10793544B2, “Disubstituted and trisubstituted 1,2,3-triazoles as Wnt inhibitors” (The Board of Regents of the University of Texas System, priority 2016, dated 2020).

Tests used:
[1] = system: Wnt/b-catenin pathway activity in L-Wnt-STF cells; experiment: Suppression of Wnt signaling in L-Wnt-STF cells (Firefly luciferase reporter); assay type: cell-based
Experimental: Chemical synthesis is described below in Example 3. L-Wnt-STF cells (Chen, et al., 2009) were seeded into each well of a white opaque 96-well plate and compounds added immediately thereafter. Luciferase activities (Firefly luciferase for Wnt/b-catenin pathway activity and Renilla luciferase activity as an irrelevant cell signal) were measured using a previously reported protocol (Wang, et al., 2013).
Additional IWPs to suppress Wnt signaling in L-Wnt-STF cells were synthesized and tested for their ability to suppress Wnt signaling as described above. The relevant data for some of the compounds are shown below in Table 1.

LRP6 phosphorylation = experiment: Western blot for biochemical markers of Wnt signaling in Hela cells: LRP6 phosphorylation; assay type: cell-based; settings: incubated 24 h, Western blot (FIG. 2)
Source text: (§1) Cell lysates were then subjected to Western blot analysis for biochemical markers of Wnt signaling (LRP6 and Dvl2/3 phosphorylation).
(§2) Dishevelled (Dvl) phosphorylation is associated with both canonical and non-canonical Wnt signaling pathways.

Dvl2/3 phosphorylation = experiment: Western blot for biochemical markers of Wnt signaling in Hela cells: Dvl2/3 phosphorylation; assay type: cell-based; settings: incubated 24 h, Western blot (FIG. 2)
Source text: as §1, §2

Axin2 expression = settings: DLD-1 cells, exposure for 2 h; cited from earlier work

Q: For `Cc1cc(-c2ncc(CC(=O)Nc3ccc(-c4cnccn4)cn3)cc2C)ccn1` [LGK974, reference compound], which EC50 ([1]; Table 1 triazole substituent screening, L-Wnt-STF cells, normalized to LGK974 control) is on record?
A: 0.2 nM

Q: Which EC50 ([1]; alternative substitution pattern of the triazole) does the source give for `Cc1cc(-n2nnc(CC(=O)Nc3ccc(-c4ccccc4)cn3)c2-c2ccccc2)ccn1` here?
A: 0.1 nM

Q: Which “phosphorylation of LRP6” value (LRP6 phosphorylation) does the source give for `O=C(Cn1nnc(-c2ccncc2)c1-c1ccccc1)Nc1ccc(-c2ccccc2)cn1` [IWP-O1, 2-(5-Phenyl-4-(pyridin-4-yl)-1H-1,2,3-triazol-1-yl)-N-(5-phenylpyridin-2-yl)acetamide] here?
A: suppressed

Q: What about the “phosphorylation of Dvl2/3” value (Dvl2/3 phosphorylation) of the same compound?
A: effectively suppressed

Q: Which “expression of Axin2” value (Axin2 expression) does the source give for `O=C(Nc1cccc2cccnc12)c1ccc(N2C(=O)[C@@H]3[C@H](C2=O)[C@@H]2C=C[C@H]3C2)cc1` [IWR-1] here?
A: decrease
